This note sets out measurements from ChEMBL document CHEMBL1129761, “2-[(Alkylsulfonyl)oxy]-6-substituted-1H-isoindole-1,3(2H)-dione mechanism-based inhibitors of human leukocyte elastase” (Bioorg Med Chem Lett, 1996).

The target of assay [1] is Chymotrypsinogen A (Bos taurus) (UniProt P00766). Put plainly: Compound was evaluated for the inhibition of Chymotrypsinogen.
Assay [2] addresses T1, Neutrophil elastase (Homo sapiens) (UniProt P08246).
T1 sequence (whole entry): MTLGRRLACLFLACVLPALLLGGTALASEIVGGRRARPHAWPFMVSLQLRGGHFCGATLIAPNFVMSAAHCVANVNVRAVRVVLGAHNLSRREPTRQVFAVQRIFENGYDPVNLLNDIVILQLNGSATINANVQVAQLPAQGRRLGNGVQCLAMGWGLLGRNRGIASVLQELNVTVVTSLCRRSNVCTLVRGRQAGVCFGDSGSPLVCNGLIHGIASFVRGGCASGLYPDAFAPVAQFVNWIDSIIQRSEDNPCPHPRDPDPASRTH
Kind of assay: Compound was evaluated for the inhibition of human leukocyte elastase (HLE).

The target in assay [3] is T2, Chymotrypsin-like elastase family member 2A (Sus scrofa) (UniProt P08419).
T2 sequence (whole entry): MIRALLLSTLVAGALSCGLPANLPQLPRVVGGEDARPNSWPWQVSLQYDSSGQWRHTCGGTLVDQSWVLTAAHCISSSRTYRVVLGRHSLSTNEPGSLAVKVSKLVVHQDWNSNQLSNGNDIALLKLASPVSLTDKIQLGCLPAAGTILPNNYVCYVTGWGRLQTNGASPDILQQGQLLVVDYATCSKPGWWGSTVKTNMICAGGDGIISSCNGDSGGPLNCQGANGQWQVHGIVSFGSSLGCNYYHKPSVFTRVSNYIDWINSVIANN
Put plainly: Compound was evaluated for the inhibition of porcine pancreatic elastase (PPE).

As for `CS(=O)(=O)ON1C(=O)c2ccc(N)cc2C1=O`, the values for the k obs / 1 in assay [1], in assay [2] and in assay [3] were 12000 M⁻¹ s⁻¹, 110000 M⁻¹ s⁻¹ and 24000 M⁻¹ s⁻¹, respectively.

For the compound `CC(C)S(=O)(=O)ON1C(=O)c2ccccc2C1=O`, the k obs / 1 in assay [1] was 160000 M⁻¹ s⁻¹; in assay [2], 63000 M⁻¹ s⁻¹; in assay [3], 370 M⁻¹ s⁻¹.

Consider `Cc1ccc(S(=O)(=O)ON2C(=O)c3ccc(C)cc3C2=O)cc1`, for which the k obs / 1 in assay [1] came out at 27000 M⁻¹ s⁻¹; in assay [2], 58000 M⁻¹ s⁻¹; in assay [3] it was 7400 M⁻¹ s⁻¹.

With `Cc1ccc2c(c1)C(=O)N(OS(C)(=O)=O)C2=O`, the results for the k obs / 1 in assay [1], in assay [2] and in assay [3] were 16000 M⁻¹ s⁻¹, 30000 M⁻¹ s⁻¹ and 21000 M⁻¹ s⁻¹, respectively.

On to `Cc1ccc(S(=O)(=O)ON2C(=O)c3ccccc3C2=O)cc1`, for which the k obs / 1 in assay [1] stood at 90000 M⁻¹ s⁻¹; in assay [2] it was 78000 M⁻¹ s⁻¹; in assay [3], 1400 M⁻¹ s⁻¹.

For the compound `CS(=O)(=O)ON1C(=O)c2ccccc2C1=O`, the k obs / 1 in assay [1] is 2700 M⁻¹ s⁻¹; in assay [2] it was 61000 M⁻¹ s⁻¹; in assay [3] it was 6500 M⁻¹ s⁻¹.

For the compound `CC(C)S(=O)(=O)ON1C(=O)c2ccc(N)cc2C1=O`, the k obs / 1 was 11000 M⁻¹ s⁻¹ in assay [1], 82000 M⁻¹ s⁻¹ in assay [2] and 22000 M⁻¹ s⁻¹ in assay [3].
